This is an account of results in paper PMC5703966, “Systemic clearance and brain distribution of carbazole-based cyanine compounds as Alzheimer’s disease drug candidates” (Scientific Reports, 2017).

Series [1] is described as follows: Blood cell partitioning (blood to plasma ratio). As to conditions: fresh whole blood, 37 °C. The class given is in vitro ADME. How it is done:
The blood to plasma ratio was determined using the method shown in supplemental information (Supplemental Methods). […] The blood cell partitioning was calculated as follows. […] Plasma, liver microsomes and hepatocyte binding by RED device The stability of the compounds in plasma, liver microsomes and hepatocyte were studied to ensure the reliability of the binding data. Hepatocyte was deactivated by leaving them on a bench for 2 days and going through a freeze thaw cycle thereafter.

A further series can be described thus: in vitro. The following applies: human, Caco-2.
Series [2] can be described thus: Brain distribution by brain slices experiment. It is filed as in vitro ADME, mouse. As to conditions: mouse brain slices, positive controls. How it is done:
The unbound volume of distribution in the brain (V u, brain) was determined in fresh brain slices using the protocol published by Friden et al.[25].

A short description of series [3]: Plasma binding by RED device. Further: tested at 0.4 µM. The class given is in vitro ADME, mouse. As to conditions: mouse plasma, RED device, 4 h, 37 °C. How it is done: (§1) Nonspecific binding in plasma (f u, plasma), microsomes (f u, mic) and hepatocyte (f u, hep) were determined using the method seen in supplemental information (Supplemental Methods). […]
(§2) All validation compounds were incubated at 37 °C over 4 h, and in triplicate. For […]
(§3) plasma stability, 10 mM DMSO solutions of SLM and SLOH were diluted to 40 µM (10% DMSO). Plasma […]
(§4) shaking water bath (60 oscillations/min approx.). The assay was started by addition of 6 µL aliquots to […]
(§5) the plasma (final DMSO incubation concentration 0.1%). […]
(§6) MS/MS. Natural logarithm of peak area ratios (compound peak area normalized by IS peak area) were plotted against time and half-life calculated. […]
(§7) placed into the sample chamber (indicated by the red ring) with 400 µL of PBS into the adjacent chamber.
(§8) The plate was sealed with a self-adhesive lid and incubated at 37 °C on an orbital shaker (1.5 g approx.) for 4 h. Aliquots (100 µL) were removed from each side of the insert, and analyzed after protein precipitation using 4 folds acetonitrile (ACN) containing berberine chloride as internal standard (IS) by LC-MS/MS (Analytical me thod seen below). The experimental procedure outlined in the Thermo Scientific RED device systems brochure was adopted in the present study . […]

The nature of series [4]: Plasma binding by RED device. Further: tested at 0.4 µM. The class given is in vitro ADME, human. The following applies: human plasma, RED device, 4 h, 37 °C. As to the method:
as §1, §2, §3, §4, §5, §6, §7, §8

A further series deals with Caco-2 cells. The series is described as follows: In vitro permeability study using Caco-2 cell. The following applies: Caco-2, 1 μM input, positive controls. On the technique in general: Passage across Caco-2 layers is used to estimate intestinal permeability.
The target of a further series is T1, OATP1A2 (Homo sapiens, UniProt P46721).
T1 sequence (P46721 1-670): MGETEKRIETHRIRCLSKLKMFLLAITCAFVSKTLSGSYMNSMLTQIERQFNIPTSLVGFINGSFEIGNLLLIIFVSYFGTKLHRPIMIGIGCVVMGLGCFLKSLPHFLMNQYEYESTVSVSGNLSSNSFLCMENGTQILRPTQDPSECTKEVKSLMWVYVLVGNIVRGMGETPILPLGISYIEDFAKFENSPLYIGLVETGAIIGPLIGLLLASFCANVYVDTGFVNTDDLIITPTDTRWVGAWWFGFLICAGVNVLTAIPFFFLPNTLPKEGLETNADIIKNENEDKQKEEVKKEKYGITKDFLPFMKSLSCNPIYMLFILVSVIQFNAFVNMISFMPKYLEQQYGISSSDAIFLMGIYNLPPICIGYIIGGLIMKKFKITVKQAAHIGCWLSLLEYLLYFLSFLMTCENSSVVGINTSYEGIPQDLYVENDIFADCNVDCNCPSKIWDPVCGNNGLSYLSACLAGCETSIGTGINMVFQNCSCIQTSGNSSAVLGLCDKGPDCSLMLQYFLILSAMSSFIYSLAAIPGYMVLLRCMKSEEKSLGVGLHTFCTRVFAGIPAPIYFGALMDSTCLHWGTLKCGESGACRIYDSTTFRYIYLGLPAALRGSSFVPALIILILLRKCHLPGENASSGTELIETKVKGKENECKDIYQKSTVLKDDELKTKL
Description: OATP substrate identification, uptake in stably transfected HEK293 cells. As to the method:
(§9) Daily changes of medium were performed and on the second day after seeding using medium containing 10 mM sodium butyrate.
(§10) Stably transfected HEK cells and control vector-transfected HEK293 cells were first washed (3 × 1 mL) with prewarmed HBSS (pH 7.4) and then were incubated with 250 μL of HBSS containing compounds at concentrations of 1 and 10 μM. Cells were incubated for 10 mins at 37 °C for all experiments. After incubation, uptake was stopped by aspirating the incubation solution and washing each well 3 times with 200 μL of ice-old HBSS. The cells were lysed in 150 μL of 1 M NaOH for 30 mins, and then neutralized by adding equal volumes of 1 M HCl.
(§11) The following equations (3 and 4) were used to calculate the uptake rates (U, pmol/mg/min) and the OATP1B1, OATP1B3, OATP2B1 and OATP1A2 uptake ratio (UR):3 U=Clysate/P×T 4 UR=UOATP1B1/1B3/2B1/1A2/UHEK293−MOCK where C lysate is the compound concentration in cell lysates. P is the protein concentration in cell lysates. T is the incubation time. U OATP1B1/1B3/2B1/1A2 is the uptake rate obtained in HEK293 stably transfected OATP1B1, OATP1B3, OATP2B1 or OATP1A2 transportation. U HEK293-MOCK is the uptake rate obtained in control vector-transfected HEK293 transportation.

A further series has as its target T2, OATP2B1 (Homo sapiens, UniProt O94956).
T2 sequence (O94956 1-709): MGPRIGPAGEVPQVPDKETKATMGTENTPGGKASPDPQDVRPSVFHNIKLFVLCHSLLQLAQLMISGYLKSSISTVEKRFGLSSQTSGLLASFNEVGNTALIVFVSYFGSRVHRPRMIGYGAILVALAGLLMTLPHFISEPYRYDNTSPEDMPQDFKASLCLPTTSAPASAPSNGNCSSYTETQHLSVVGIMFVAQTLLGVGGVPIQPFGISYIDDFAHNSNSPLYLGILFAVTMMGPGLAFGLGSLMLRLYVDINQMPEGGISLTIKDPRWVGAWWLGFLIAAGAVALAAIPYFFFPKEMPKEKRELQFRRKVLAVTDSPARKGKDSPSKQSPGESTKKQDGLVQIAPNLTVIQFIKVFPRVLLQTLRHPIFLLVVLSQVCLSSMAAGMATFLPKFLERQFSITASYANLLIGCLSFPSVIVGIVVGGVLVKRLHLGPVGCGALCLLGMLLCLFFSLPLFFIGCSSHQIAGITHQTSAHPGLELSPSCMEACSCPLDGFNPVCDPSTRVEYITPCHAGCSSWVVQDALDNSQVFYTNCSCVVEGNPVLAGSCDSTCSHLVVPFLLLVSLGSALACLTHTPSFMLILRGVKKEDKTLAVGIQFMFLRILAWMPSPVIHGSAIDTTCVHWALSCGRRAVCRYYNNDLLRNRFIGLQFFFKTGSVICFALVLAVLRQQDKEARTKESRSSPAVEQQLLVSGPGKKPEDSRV
The series is described as above. As to conditions: positive control. How it is done: as §9, §10, §11

A further series has as its target T3, OATP1B1 (Homo sapiens, UniProt Q9Y6L6).
T3 sequence (Q9Y6L6 1-691): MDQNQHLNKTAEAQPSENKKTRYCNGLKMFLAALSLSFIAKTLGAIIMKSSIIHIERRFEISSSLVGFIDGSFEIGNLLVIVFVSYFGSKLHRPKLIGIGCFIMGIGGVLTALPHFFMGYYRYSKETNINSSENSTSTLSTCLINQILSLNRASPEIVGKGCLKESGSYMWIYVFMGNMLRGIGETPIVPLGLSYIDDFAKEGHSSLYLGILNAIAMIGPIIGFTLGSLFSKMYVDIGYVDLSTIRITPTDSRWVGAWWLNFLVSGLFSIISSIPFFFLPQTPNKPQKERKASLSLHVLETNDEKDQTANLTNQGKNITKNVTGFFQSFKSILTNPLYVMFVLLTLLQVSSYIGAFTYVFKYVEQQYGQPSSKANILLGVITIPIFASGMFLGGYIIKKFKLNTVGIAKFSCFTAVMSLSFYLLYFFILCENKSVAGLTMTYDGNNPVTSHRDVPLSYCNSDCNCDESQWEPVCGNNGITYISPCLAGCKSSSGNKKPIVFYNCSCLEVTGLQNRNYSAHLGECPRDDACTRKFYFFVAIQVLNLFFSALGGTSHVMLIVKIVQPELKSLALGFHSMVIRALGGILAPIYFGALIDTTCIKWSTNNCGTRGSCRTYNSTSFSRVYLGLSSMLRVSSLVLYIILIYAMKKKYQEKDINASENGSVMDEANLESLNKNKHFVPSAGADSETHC
Described as above. How it is done: as §9, §10, §11

For the next series, the target named is T4, OATP1B3 (Homo sapiens, UniProt Q9NPD5).
T4 sequence (Q9NPD5 1-702): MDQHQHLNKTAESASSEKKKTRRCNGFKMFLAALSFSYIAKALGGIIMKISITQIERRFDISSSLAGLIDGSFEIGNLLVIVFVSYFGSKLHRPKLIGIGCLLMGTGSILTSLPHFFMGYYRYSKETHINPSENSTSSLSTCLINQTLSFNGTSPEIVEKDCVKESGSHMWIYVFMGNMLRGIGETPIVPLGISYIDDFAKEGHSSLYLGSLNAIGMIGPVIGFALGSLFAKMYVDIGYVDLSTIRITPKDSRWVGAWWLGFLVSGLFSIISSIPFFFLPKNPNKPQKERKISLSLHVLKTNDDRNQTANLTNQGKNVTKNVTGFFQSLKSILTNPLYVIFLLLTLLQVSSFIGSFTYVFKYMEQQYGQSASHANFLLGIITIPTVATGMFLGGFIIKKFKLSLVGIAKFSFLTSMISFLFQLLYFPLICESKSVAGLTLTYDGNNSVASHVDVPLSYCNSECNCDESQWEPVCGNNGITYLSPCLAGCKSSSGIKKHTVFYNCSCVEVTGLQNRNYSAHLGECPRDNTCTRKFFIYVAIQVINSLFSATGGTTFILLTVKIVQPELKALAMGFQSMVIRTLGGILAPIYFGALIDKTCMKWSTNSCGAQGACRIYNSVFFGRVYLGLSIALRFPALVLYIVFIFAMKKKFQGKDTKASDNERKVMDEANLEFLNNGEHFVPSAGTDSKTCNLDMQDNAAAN
The series is described as above. How it is done:
as §9, §10, §11

As for `NS(=O)(=O)c1cc(C2(O)NC(=O)c3ccccc32)ccc1Cl` (stereo not shown) [Chlorthalidone, reference compound], the values for the blood plasma ratio at 1 h, 1 μM in series [1] (human) and in series [1] (mouse) were 11 ± 3.2 and 6.2 ± 0.2, respectively.

Usually Papp A→B stands for how fast a substance crosses the layer from the apical side. Read a low Papp A→B as poor permeation. As usually defined, the efflux ratio is a quotient of directional permeabilities that is used to spot active efflux. `C[C@H]1O[C@@H](O[C@H]2[C@@H](O)C[C@H](O[C@H]3[C@@H](O)C[C@H](O[C@H]4CC[C@@]5(C)[C@H](CC[C@@H]6[C@@H]5C[C@@H](O)[C@]5(C)[C@@H](C7=CC(=O)OC7)CC[C@]65O)C4)O[C@@H]3C)O[C@@H]2C)C[C@H](O)[C@@H]1O` [Digoxin]: in the series “in vitro”, the apical-to-basolateral permeability (Papp A→B) at 2 μM was found to be 3.5 ± 0.34 ×10⁻⁶ cm/s and the efflux ratio at 2 μM was 5 ± 1.5.

`NCC1(CC(=O)O)CCCCC1` [Gabapentin, reference compound]: the “Unbound brain distribution (Vu, brain)” value in series [2] turned out to be 2.20 ± 1.00 mL/g brain.

In the case of `CC(C)NCC(O)COc1cccc2ccccc12` (stereo not shown) [Propranolol, reference compound], the “f u,plasma %” value in series [3] came out at 0.220 ± 0.0200%; in series [4], 6.50 ± 0.480%. For the same compound, in “in vitro”, the apical-to-basolateral permeability (Papp A→B) at 1 μM worked out at 17 ± 1.3 ×10⁻⁶ cm/s.

In the case of `COC(=O)c1ccccc1-c1c2ccc(=N)cc-2oc2cc(N)ccc12` [Rhodamine 123], the Papp A→B at 1 μM in “in vitro” was 0.73 ± 0.02 ×10⁻⁶ cm/s.

`O=C([O-])c1ccccc1-c1c2ccc(=O)cc-2oc2cc([O-])ccc12.[Na+].[Na+]` [Sodium fluorescein]: the “Papp (A-B)” value in the series with Caco-2 cells is listed as 1.40 ± 0.260 (cm/s) × 10-6.

As for `CC[C@@]1(O)C(=O)OCc2c1cc1n(c2=O)Cc2cc3c(CN(C)C)c(O)ccc3nc2-1` [Topotecan], in “in vitro”, the Papp A→B at 2 μM came to 1.2 ± 0.09 ×10⁻⁶ cm/s and the efflux ratio at 2 μM was 4.6 ± 1.7.

In the case of `C[C@]12CC[C@@H]3c4ccc(OS(=O)(=O)O)cc4CC[C@H]3[C@@H]1CCC2=O` [estrone-3-sulfate, reference compound], the “uptake ratio of OATP1A2” value at OATP1A2 is reported as 18 ± 3.7. Also, on OATP2B1, the “uptake ratio of OATP2B1” value is recorded as 13 ± 2.9.

`C[C@]12CC[C@@H]3c4ccc(O)cc4CC[C@H]3[C@@H]1CC[C@@H]2O[C@@H]1O[C@H](C(=O)O)[C@@H](O)[C@H](O)[C@H]1O` [β-Estradiol 17-β-D-glucuronide, reference compound]: the “uptake ratio of OATP1B1” value on OATP1B1 turned out to be 45 ± 7.6. The “uptake ratio of OATP1B3” value at OATP1B3 is listed as 10 ± 3.0.
